Measurements taken from patent US20020137929A1, “1 - (3-heterocyclylphenyl) isothiourea, -isourea, -guanidine and -amidine herbicidal agents” (Intellectual Property Department, BASF Aktiengesellschaft, priority 1998, published 2002).

Key:
ABUTH (Velvetleaf) = experiment: Postemergence herbicidal evaluation; assay type: in vivo, Abutilon theophrasti
How it was run: (§1)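 Compound is applied as a foliar spray to seedlings about two weeks old, formulated in equal parts acetone and water with 0.5% TWEEN 20 and delivered at 40 psi to give about 0.0156–0.500 kg per hectare. Injury is rated visually 0–9 after four to five weeks.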

GALAP (Galium) = experiment: Postemergence herbicidal evaluation; assay type: in vivo, Galium aparine
How it was run: as §1

ECHCG (Barnyardgrass) = experiment: Postemergence herbicidal evaluation; assay type: in vivo, Echinochloa crus-galli
How it was run: as §1

SETVI (Foxtail, Green) = experiment: Postemergence herbicidal evaluation; assay type: in vivo, Setaria viridis
How it was run: as §1

ORYSAT (Rice, Tebonnet) = experiment: Postemergence herbicidal evaluation; assay type: in vivo, Oryza sativa, (L.) Tebonnet
How it was run: as §1

[1] = tested on: IPOHE (Morningglory, Ivyleaf); experiment: Preemergence herbicidal evaluation; assay type: in vivo, Ipomoea hederacea; conditions: rated 4-5 weeks after treatment
How it was run: (§2)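 Scores use a 0–9 visual scale covering stand, vigor, malformation, size and chlorosis relative to controls, rated four to five weeks after treatment. Before emergence, soil-planted seeds were sprayed with compound in aqueous acetone at roughly 0.0156–0.500 kg/ha and held in the greenhouse.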

[2] = tested on: TRZAWR (Wheat, Winter, cv Riband); experiment: Preemergence herbicidal evaluation; assay type: in vivo, Triticum aestivum; conditions: rated 4-5 weeks after treatment
How it was run: as §2

ZEAMX (Corn, Field) = experiment: Preemergence herbicidal evaluation; assay type: in vivo, Zea mays; conditions: rated 4-5 weeks after treatment
How it was run: as §2

[3] = tested on: ECHORC (Watergrass (Calif.)); experiment: Preemergence weed control under flooded paddy conditions; assay type: in vivo, Echinochloa oryzoides; conditions: rated 3-4 weeks after treatment
How it was run: (§3)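 Herbicidal effect is scored visually on a 0-9 scale against an untreated control, three to four weeks after compounds are pipetted into the flood water (1.5 to 3 cm deep) over seeds planted in silt loam at 0.5 cm depth. Rates: about 0.0313 to 0.500 kg/ha.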

CYPIR (Rice Flatsedge) [4] = experiment: as above; assay type: in vivo, Cyperus iria; conditions: rated 3-4 weeks after treatment
How it was run: as §3

CYPIR (Rice Flatsedge) [5] = experiment: Postemergence weed control under flooded paddy conditions; assay type: in vivo, Cyperus iria; conditions: postemergence weeds, 3-4 weeks after treatment
How it was run: (§4)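 Herbicidal effect is judged by eye on a 0–9 scale versus control, 3–4 weeks after dosing. Dosing is into flood water kept 1.5–3 cm over the soil, at about 0.0313–0.500 kg/ha in aqueous/acetone 50/50 v/v, on 3–5 cm weeds and 1.5–2.5-leaf rice seedlings.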

CYPSE (Flatsedge) = experiment: as above; assay type: in vivo, Cyperus serotinus; conditions: postemergence weeds, 3-4 weeks after treatment
How it was run: as §4

[6] = tested on: SAGPY (Arrowhead (Pygmaea)); experiment: as above; assay type: in vivo, Sagittaria pygmaea; conditions: postemergence weeds, 3-4 weeks after treatment
How it was run: as §4

With `CCOC(=O)CN1CC(=O)N(CC(=O)OCC)C1=Nc1cc(-n2c(=O)cc(C(F)(F)F)n(C)c2=O)c(F)cc1Cl` [Compound 34, 2-{{2-Chloro-5-[3,6-dihydro-3-methyl-2,6-dioxo-4-(trifluoromethyl)-1(2H)-pyrimidinyl]-4-fluoro-phenyl}imino}-4-oxo-1,3-imidazolidinediacetic acid, diethyl ester] the “Postemergence herbicidal rating ABUTH” value (ABUTH (Velvetleaf); Rate 0.0158 kg/ha) was 9.0, the “Postemergence herbicidal rating ABUTH” value (ABUTH (Velvetleaf); Rate 0.0315 kg/ha) was 9.0 and the “Postemergence herbicidal rating ABUTH” value (ABUTH (Velvetleaf); Rate 0.0630 kg/ha) was 9.0. The “Postemergence herbicidal rating GALAP” value (GALAP (Galium); Rate 0.0158 kg/ha) was 4.0, the “Postemergence herbicidal rating GALAP” value (GALAP (Galium); Rate 0.0315 kg/ha) was 9.0 and the “Postemergence herbicidal rating GALAP” value (GALAP (Galium); Rate 0.0630 kg/ha) was 6.0. For the same molecule, the “Postemergence herbicidal rating ECHCG” value (ECHCG (Barnyardgrass); Rate 0.0158 kg/ha) was 0.0, the “Postemergence herbicidal rating ECHCG” value (ECHCG (Barnyardgrass); Rate 0.0315 kg/ha) was 0.0 and the “Postemergence herbicidal rating ECHCG” value (ECHCG (Barnyardgrass); Rate 0.0630 kg/ha) was 1.0. The “Postemergence herbicidal rating SETVI” value (SETVI (Foxtail, Green); Rate 0.0158 kg/ha) was 0.0, the “Postemergence herbicidal rating SETVI” value (SETVI (Foxtail, Green); Rate 0.0315 kg/ha) was 4.0 and the “Postemergence herbicidal rating SETVI” value (SETVI (Foxtail, Green); Rate 0.0630 kg/ha) was 9.0. For the same molecule, the “Postemergence herbicidal rating ORYSAT” value (ORYSAT (Rice, Tebonnet); Rate 0.0158 kg/ha) was 1.0, the “Postemergence herbicidal rating ORYSAT” value (ORYSAT (Rice, Tebonnet); Rate 0.0315 kg/ha) was 2.0 and the “Postemergence herbicidal rating ORYSAT” value (ORYSAT (Rice, Tebonnet); Rate 0.0630 kg/ha) was 3.5. The “Preemergence herbicidal rating IPOHE” value ([1]; rate 0.0313 kg/ha) was 0.0, the “Preemergence herbicidal rating IPOHE” value ([1]; rate 0.0625 kg/ha) was 3.0 and the “Preemergence herbicidal rating IPOHE” value ([1]; rate 0.1250 kg/ha) was 3.0. The “Preemergence herbicidal rating IPOHE” value ([1]; rate 0.2500 kg/ha) was 9.0, the “Preemergence herbicidal rating TRZAWR” value ([2]; rate 0.0313 kg/ha) was 0.0 and the “Preemergence herbicidal rating TRZAWR” value ([2]; rate 0.0625 kg/ha) was 0.0. For the same molecule, the “Preemergence herbicidal rating TRZAWR” value ([2]; rate 0.1250 kg/ha) was 1.0, the “Preemergence herbicidal rating TRZAWR” value ([2]; rate 0.2500 kg/ha) was 5.0 and the “Preemergence herbicidal rating ZEAMX” value (ZEAMX (Corn, Field); rate 0.0313 kg/ha) was 0.0. For the same molecule, the “Preemergence herbicidal rating ZEAMX” value (ZEAMX (Corn, Field); rate 0.0625 kg/ha) was 3.0, the “Preemergence herbicidal rating ZEAMX” value (ZEAMX (Corn, Field); rate 0.1250 kg/ha) was 7.0 and the “Preemergence herbicidal rating ZEAMX” value (ZEAMX (Corn, Field); rate 0.2500 kg/ha) was 9.0. For the same molecule, the “Herbicidal rating ECHORC” value ([3]; 0.0313 kg/ha) was 3.0, the “Herbicidal rating ECHORC” value ([3]; 0.0625 kg/ha) was 4.0 and the “Herbicidal rating ECHORC” value ([3]; 0.1250 kg/ha) was 4.0. For the same molecule, the “Herbicidal rating ECHORC” value ([3]; 0.2500 kg/ha) was 9.0, the “Herbicidal rating CYPIR” value (CYPIR (Rice Flatsedge) [4]; 0.0313 kg/ha) was 0.0 and the “Herbicidal rating CYPIR” value (CYPIR (Rice Flatsedge) [4]; 0.0625 kg/ha) was 0.0. For the same molecule, the “Herbicidal rating CYPIR” value (CYPIR (Rice Flatsedge) [4]; 0.1250 kg/ha) was 0.0, the “Herbicidal rating CYPIR” value (CYPIR (Rice Flatsedge) [4]; 0.2500 kg/ha) was 0.0 and the “Herbicidal rating CYPIR” value (CYPIR (Rice Flatsedge) [5]; rate 0.0313 kg/ha) was 0.0. The “Herbicidal rating CYPIR” value (CYPIR (Rice Flatsedge) [5]; rate 0.0625 kg/ha) was 0.0, the “Herbicidal rating CYPIR” value (CYPIR (Rice Flatsedge) [5]; rate 0.1250 kg/ha) was 0.0 and the “Herbicidal rating CYPIR” value (CYPIR (Rice Flatsedge) [5]; rate 0.2500 kg/ha) was 0.0. For the same molecule, the “Herbicidal rating CYPSE” value (CYPSE (Flatsedge); rate 0.0313 kg/ha) was 0.0, the “Herbicidal rating CYPSE” value (CYPSE (Flatsedge); rate 0.0625 kg/ha) was 0.0 and the “Herbicidal rating CYPSE” value (CYPSE (Flatsedge); rate 0.1250 kg/ha) was 0.0. The “Herbicidal rating CYPSE” value (CYPSE (Flatsedge); rate 0.2500 kg/ha) was 0.0, the “Herbicidal rating SAGPY” value ([6]; rate 0.0313 kg/ha) was 0.0 and the “Herbicidal rating SAGPY” value ([6]; rate 0.0625 kg/ha) was 0.0. For the same molecule, the “Herbicidal rating SAGPY” value ([6]; rate 0.1250 kg/ha) was 0.0 and the “Herbicidal rating SAGPY” value ([6]; rate 0.2500 kg/ha) was 0.0.
In the case of `CCOC(=O)CN1C(=O)C(Cc2ccccc2OC)SC1=Nc1cc(-n2c(=O)cc(C(F)(F)F)n(C)c2=O)c(F)cc1Cl` (stereo not shown) [Compound 37, Ethyl 2-{{2-chloro-5-[3,6-dihydro-3-methyl-2,6-dioxo-4-(trifluoromethyl)-1(2H)-pyrimidinyl]-4-fluorophenyl}imino}-5-(o-methoxybenzyl)-4-oxo-3-thiazolidineacetate], the “Postemergence herbicidal rating ABUTH” value (ABUTH (Velvetleaf); Rate 0.0158 kg/ha) is reported as 9.0, the “Postemergence herbicidal rating ABUTH” value (ABUTH (Velvetleaf); Rate 0.0315 kg/ha) is reported as 9.0 and the “Postemergence herbicidal rating ABUTH” value (ABUTH (Velvetleaf); Rate 0.0630 kg/ha) is reported as 9.0. The “Postemergence herbicidal rating GALAP” value (GALAP (Galium); Rate 0.0158 kg/ha) was 1.0, the “Postemergence herbicidal rating GALAP” value (GALAP (Galium); Rate 0.0315 kg/ha) was 3.0 and the “Postemergence herbicidal rating GALAP” value (GALAP (Galium); Rate 0.0630 kg/ha) was 4.0. The “Postemergence herbicidal rating ECHCG” value (ECHCG (Barnyardgrass); Rate 0.0158 kg/ha) was 0.0, the “Postemergence herbicidal rating ECHCG” value (ECHCG (Barnyardgrass); Rate 0.0315 kg/ha) was 0.0 and the “Postemergence herbicidal rating ECHCG” value (ECHCG (Barnyardgrass); Rate 0.0630 kg/ha) was 0.0. The “Postemergence herbicidal rating SETVI” value (SETVI (Foxtail, Green); Rate 0.0158 kg/ha) was 0.0, the “Postemergence herbicidal rating SETVI” value (SETVI (Foxtail, Green); Rate 0.0315 kg/ha) was 0.0 and the “Postemergence herbicidal rating SETVI” value (SETVI (Foxtail, Green); Rate 0.0630 kg/ha) was 0.0. The “Postemergence herbicidal rating ORYSAT” value (ORYSAT (Rice, Tebonnet); Rate 0.0158 kg/ha) was 0.5, the “Postemergence herbicidal rating ORYSAT” value (ORYSAT (Rice, Tebonnet); Rate 0.0315 kg/ha) was 1.0 and the “Postemergence herbicidal rating ORYSAT” value (ORYSAT (Rice, Tebonnet); Rate 0.0630 kg/ha) was 1.5. The “Preemergence herbicidal rating IPOHE” value ([1]; rate 0.1250 kg/ha) was 0.0, the “Preemergence herbicidal rating IPOHE” value ([1]; rate 0.2500 kg/ha) was 0.0 and the “Preemergence herbicidal rating TRZAWR” value ([2]; rate 0.1250 kg/ha) was 0.0. The “Preemergence herbicidal rating TRZAWR” value ([2]; rate 0.2500 kg/ha) was 0.0, the “Preemergence herbicidal rating ZEAMX” value (ZEAMX (Corn, Field); rate 0.1250 kg/ha) was 0.0 and the “Preemergence herbicidal rating ZEAMX” value (ZEAMX (Corn, Field); rate 0.2500 kg/ha) was 0.0. For the same molecule, the “Herbicidal rating ECHORC” value ([3]; 0.0313 kg/ha) was 4.0, the “Herbicidal rating ECHORC” value ([3]; 0.0625 kg/ha) was 6.0 and the “Herbicidal rating ECHORC” value ([3]; 0.1250 kg/ha) was 7.0. The “Herbicidal rating ECHORC” value ([3]; 0.2500 kg/ha) was 7.0, the “Herbicidal rating CYPIR” value (CYPIR (Rice Flatsedge) [4]; 0.0313 kg/ha) was 0.0 and the “Herbicidal rating CYPIR” value (CYPIR (Rice Flatsedge) [4]; 0.0625 kg/ha) was 0.0. For the same molecule, the “Herbicidal rating CYPIR” value (CYPIR (Rice Flatsedge) [4]; 0.1250 kg/ha) was 0.0, the “Herbicidal rating CYPIR” value (CYPIR (Rice Flatsedge) [4]; 0.2500 kg/ha) was 0.0 and the “Herbicidal rating CYPIR” value (CYPIR (Rice Flatsedge) [5]; rate 0.0313 kg/ha) was 0.0. The “Herbicidal rating CYPIR” value (CYPIR (Rice Flatsedge) [5]; rate 0.0625 kg/ha) was 0.0, the “Herbicidal rating CYPIR” value (CYPIR (Rice Flatsedge) [5]; rate 0.1250 kg/ha) was 0.0 and the “Herbicidal rating CYPIR” value (CYPIR (Rice Flatsedge) [5]; rate 0.2500 kg/ha) was 0.0. The “Herbicidal rating CYPSE” value (CYPSE (Flatsedge); rate 0.0313 kg/ha) was 0.0, the “Herbicidal rating CYPSE” value (CYPSE (Flatsedge); rate 0.0625 kg/ha) was 0.0 and the “Herbicidal rating CYPSE” value (CYPSE (Flatsedge); rate 0.1250 kg/ha) was 0.0. For the same molecule, the “Herbicidal rating CYPSE” value (CYPSE (Flatsedge); rate 0.2500 kg/ha) was 0.0, the “Herbicidal rating SAGPY” value ([6]; rate 0.0313 kg/ha) was 0.0 and the “Herbicidal rating SAGPY” value ([6]; rate 0.0625 kg/ha) was 0.0. For the same molecule, the “Herbicidal rating SAGPY” value ([6]; rate 0.1250 kg/ha) was 0.0 and the “Herbicidal rating SAGPY” value ([6]; rate 0.2500 kg/ha) was 3.0.
